Measurements published in patent publication US8802597B2, “Herbicidal pyrimidines” (E I du Pont de Nemours and Company, priority 2003, dated 2014).

Assays:
Assay in all cases: Test C pre/postemergence
Format in all cases: in vivo
[1] = tested on: bermudagrass (Cynodon dactylon); conditions: Preemergence
In short: (§1)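 Greenhouse herbicide screen, visual readout. Compound in solvent/surfactant applied preemergence at planting or postemergence to 1- to 4-leaf plants; assessed at 12–14 days on a 0–100 control scale.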

[2] = tested on: cocklebur (Xanthium strumarium); conditions: Preemergence
In short: as §1

[3] = tested on: common (oilseed) sunflower (Helianthus annuus); conditions: Preemergence, scale 0 to 100, 0 no effect, 100 complete control
In short: as §1

[4] = tested on: common ragweed (Ambrosia elatior); conditions: Preemergence, scale 0 to 100, 0 no effect, 100 complete control
In short: as §1

[5] = tested on: eastern black nightshade (Solanum ptycanthum); conditions: Preemergence, scale 0 to 100, 0 no effect, 100 complete control
In short: as §1

[6] = tested on: goosegrass (Eleusine indica); conditions: Preemergence
In short: as §1

[7] = tested on: johnsongrass (Sorghum halepense); conditions: Preemergence
In short: as §1

kochia (Kochia scoparia) = conditions: Preemergence; for Plant response rating, Kochia: scale 0 to 100, 0 no effect, 100 complete control
In short: as §1

[8] = tested on: lambsquarters (Chenopodium album); conditions: Preemergence
In short: as §1

[9] = tested on: pigweed (Amaranthus retroflexus); conditions: Preemergence, scale 0 to 100, 0 no effect, 100 complete control
In short: as §1

soybean (Glycine max) = conditions: Preemergence, scale 0 to 100, 0 no effect, 100 complete control
In short: as §1

[10] = tested on: velvetleaf (Abutilon theophrasti); conditions: Preemergence, scale 0 to 100, 0 no effect, 100 complete control
In short: as §1

[11] = 16 g ai/ha, scale 0 to 100, 0 no effect, 100 complete control
[12] = 31 g ai/ha, scale 0 to 100, 0 no effect, 100 complete control

## Nc1nc(C2CC2)nc(C(=O)[O-])c1Cl.[Na+] [Compound 77, 6-amino-5-chloro-2-cyclopropyl-4-pyrimidinecarboxylic acid monosodium salt]
[1]; Cynodon dactylon, pre-emergence, 31 g ai/ha, scale 0 to 100, 0 no effect, 100 complete control, read-out: Plant response rating, Bermudagrass
  pest or weed control at 31 g/ha: 0%
[1]; Cynodon dactylon, pre-emergence, 62 g ai/ha, scale 0 to 100, 0 no effect, 100 complete control, read-out: Plant response rating, Bermudagrass
  pest or weed control at 62 g/ha: 0%
[1]; Cynodon dactylon, pre-emergence, 125 g ai/ha, scale 0 to 100, read-out: Plant response rating, Bermudagrass
  pest or weed control at 125 g/ha: 0%
[1]; [11]
  Plant response rating, Bermudagrass: 0
[2]; [11]
  Plant response rating, Cocklebur: 55
[2]; [12]
  Plant response rating, Cocklebur: 70
[2]; Xanthium strumarium, pre-emergence, 62 g ai/ha, scale 0 to 100, 0 no effect, 100 complete control, read-out: Plant response rating, Cocklebur
  pest or weed control at 62 g/ha: 80%
[2]; Xanthium strumarium, pre-emergence, 125 g ai/ha, scale 0 to 100, read-out: Plant response rating, Cocklebur
  pest or weed control at 125 g/ha: 95%
[3]; Helianthus annuus, pre-emergence, 31 g ai/ha, read-out: Plant response rating, Sunflower
  pest or weed control at 31 g/ha: 50%
[3]; Helianthus annuus, pre-emergence, 62 g ai/ha, read-out: Plant response rating, Sunflower
  pest or weed control at 62 g/ha: 100%
[3]; 16 g ai/ha
  Plant response rating, Sunflower: 20
[4]; Ambrosia artemisiifolia, pre-emergence, 31 g ai/ha, read-out: Plant response rating, Ragweed
  pest or weed control at 31 g/ha: 0%
[4]; Ambrosia artemisiifolia, pre-emergence, 62 g ai/ha, read-out: Plant response rating, Ragweed
  pest or weed control at 62 g/ha: 50%
[4]; 16 g ai/ha
  Plant response rating, Ragweed: 0
[5]; 16 g ai/ha
  Plant response rating, Nightshade: 0
[5]; 31 g ai/ha
  Plant response rating, Nightshade: 0
[5]; 62 g ai/ha
  Plant response rating, Nightshade: 0
[6]; Eleusine indica, pre-emergence, 31 g ai/ha, scale 0 to 100, 0 no effect, 100 complete control, read-out: Plant response rating, Goosegrass
  pest or weed control at 31 g/ha: 0%
[6]; Eleusine indica, pre-emergence, 62 g ai/ha, scale 0 to 100, 0 no effect, 100 complete control, read-out: Plant response rating, Goosegrass
  pest or weed control at 62 g/ha: 0%
[6]; [11]
  Plant response rating, Goosegrass: 0
[6]; 125 g ai/ha, scale 0 to 100
  Plant response rating, Goosegrass: 0
[7]; [11]
  Plant response rating, Johnsongrass: 0
[7]; 62 g ai/ha, scale 0 to 100, 0 no effect, 100 complete control
  Plant response rating, Johnsongrass: 0
[7]; 125 g ai/ha, scale 0 to 100
  Plant response rating, Johnsongrass: 0
[7]; Sorghum halepense, pre-emergence, 31 g ai/ha, scale 0 to 100, 0 no effect, 100 complete control, read-out: Plant response rating, Johnsongrass
  pest or weed control at 31 g/ha: 0%
Kochia (Kochia scoparia); Bassia scoparia, pre-emergence, 125 g ai/ha, scale 0 to 100, read-out: Plant response rating, Kochia
  pest or weed control at 125 g/ha: 80%
Kochia (Kochia scoparia); 16 g ai/ha
  Plant response rating, Kochia: 20
Kochia (Kochia scoparia); 62 g ai/ha
  Plant response rating, Kochia: 50
[8]; [11]
  Plant response rating, Lambsquarters: 0
[8]; [12]
  Plant response rating, Lambsquarters: 0
[8]; 125 g ai/ha, scale 0 to 100
  Plant response rating, Lambsquarters: 40
[9]; Amaranthus retroflexus, pre-emergence, 31 g ai/ha, read-out: Plant response rating, Pigweed
  pest or weed control at 31 g/ha: 60%
[9]; Amaranthus retroflexus, pre-emergence, 62 g ai/ha, read-out: Plant response rating, Pigweed
  pest or weed control at 62 g/ha: 65%
[9]; 16 g ai/ha
  Plant response rating, Pigweed: 60
Soybean (Glycine max); Glycine max, pre-emergence, 31 g ai/ha, read-out: Plant response rating, Soybean
  plant injury at 31 g/ha: 100%
Soybean (Glycine max); Glycine max, pre-emergence, 62 g ai/ha, read-out: Plant response rating, Soybean
  plant injury at 62 g/ha: 100%
Soybean (Glycine max); 16 g ai/ha
  Plant response rating, Soybean: 40
[10]; Abutilon theophrasti, pre-emergence, 62 g ai/ha, read-out: Plant response rating, Velvetleaf
  pest or weed control at 62 g/ha: 85%
[10]; 16 g ai/ha
  Plant response rating, Velvetleaf: 10
[10]; 31 g ai/ha
  Plant response rating, Velvetleaf: 30
